{"source": "patent US9771369B2", "about": "“Compounds and methods for kinase modulation, and indications therefor” (Plexxikon Inc., priority 2014, dated 2017)"}
{"biological_target": "c-kit mutant D816V (Homo sapiens (Human), UniProt P10721, D816V/DEL694-753)", "sequence (P10721 other isoform, or with tags, fused parts or gaps D816V/del 694-753)": "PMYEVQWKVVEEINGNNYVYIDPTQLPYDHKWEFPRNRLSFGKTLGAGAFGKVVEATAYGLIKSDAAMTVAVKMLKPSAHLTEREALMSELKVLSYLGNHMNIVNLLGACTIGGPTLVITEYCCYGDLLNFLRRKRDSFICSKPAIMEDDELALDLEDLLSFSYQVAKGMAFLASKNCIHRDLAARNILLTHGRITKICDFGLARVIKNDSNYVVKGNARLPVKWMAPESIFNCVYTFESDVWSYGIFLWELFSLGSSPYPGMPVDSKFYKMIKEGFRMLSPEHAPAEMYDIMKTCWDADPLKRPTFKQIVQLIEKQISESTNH", "assay": "c-Kit mutant D816V biochemical assay (AlphaScreen kinase activity)", "summary_of_the_method": "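Recombinant His-tagged c-Kit D816V kinase domain (residues 551-934, insert 694-753 deleted, E. coli-expressed) phosphorylating 30 nM biotin-(E4Y)10 with 10 μM ATP, HEPES pH 7.2, Mg/Mn, 5% DMSO; 30 min, room temperature. Phosphorylation detected by AlphaScreen (streptavidin donor/PY30 acceptor beads); IC50 from 8-point 1:3 series.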", "units": {"IC50": "µM"}}
{"molecule": "COc1cc(-c2cc3c(N4CCC(c5nc(C)c(-c6ccc(C(F)(F)F)cc6)[nH]5)CC4)ncnc3[nH]2)ccn1", "note": "[P-3149, 6-(2-methoxy-4-pyridyl)-4-[4-[4-methyl-5-[4-(trifluoromethyl)phenyl]-1H-imidazol-2-yl]-1-piperidyl]-7H-pyrrolo[2,3-d]pyrimidine]", "IC50": "0.0001 to 1"}
{"molecule": "COc1ccc(-c2[nH]c(C3(C)CCN(c4ncnc5[nH]c(C)cc45)CC3)nc2C)cc1C", "note": "[P-3102, 4-[4-[5-(4-methoxy-3-methyl-phenyl)-4-methyl-1H-imidazol-2-yl]-4-methyl-1-piperidyl]-6-methyl-7H-pyrrolo[2,3-d]pyrimidine]", "IC50": "0.0001 to 1"}
{"molecule": "CCOc1ccc(-c2[nH]c(C3CCN(c4ncnc5[nH]c(C)cc45)CC3)nc2C)cc1C", "note": "[P-3125, 4-[4-[5-(4-ethoxy-3-methyl-phenyl)-4-methyl-1H-imidazol-2-yl]-1-piperidyl]-6-methyl-7H-pyrrolo[2,3-d]pyrimidine]", "IC50": "1 to 10"}
{"molecule": "COc1ccc(-c2[nH]c(C3(C)CCN(c4ncnc5[nH]c(-c6ccc(C#N)cc6)cc45)CC3)nc2C)cc1F", "note": "[P-3163, 4-[4-[4-[5-(3-fluoro-4-methoxy-phenyl)-4-methyl-1H-imidazol-2-yl]-4-methyl-1-piperidyl]-7H-pyrrolo[2,3-d]pyrimidin-6-yl]benzonitrile]", "IC50": "0.0001 to 1"}
{"molecule": "Cc1nc(C2CCN(c3ncnc4[nH]c(-c5ccnc(C(F)(F)F)c5)cc34)CC2)[nH]c1-c1ccccc1", "note": "[P-3097, 4-[4-(4-methyl-5-phenyl-1H-imidazol-2-yl)-1-piperidyl]-6-[2-(trifluoromethyl)-4-pyridyl]-7H-pyrrolo[2,3-d]pyrimidine]", "IC50": "0.0001 to 1"}
{"molecule": "Cc1cc2c(N3CCC(c4nc(C)c(-c5ccc6c(c5)OCO6)[nH]4)CC3)ncnc2[nH]1", "note": "[P-3120, 4-[4-[5-(1,3-benzodioxol-5-yl)-4-methyl-1H-imidazol-2-yl]-1-piperidyl]-6-methyl-7H-pyrrolo[2,3-d]pyrimidine]", "IC50": "1 to 10"}
{"molecule": "CCOc1ccc(-c2[nH]c(C3(C)CCN(c4ncnc5[nH]c(-c6cnn(C(F)F)c6)cc45)CC3)nc2C)cc1", "note": "[P-3170, 6-[1-(difluoromethyl)pyrazol-4-yl]-4-[4-[5-(4-ethoxyphenyl)-4-methyl-1H-imidazol-2-yl]-4-methyl-1-piperidyl]-7H-pyrrolo[2,3-d]pyrimidine]", "IC50": "0.0001 to 1"}
{"molecule": "COc1ccc(-c2[nH]c(C3(C)CCN(c4ncnc5[nH]c(-c6cnn(C(F)F)c6)cc45)CC3)nc2C)cc1", "note": "[P-3153, 6-[1-(difluoromethyl)pyrazol-4-yl]-4-[4-[5-(4-methoxyphenyl)-4-methyl-1H-imidazol-2-yl]-4-methyl-1-piperidyl]-7H-pyrrolo[2,3-d]pyrimidine]", "IC50": "0.0001 to 1"}
{"molecule": "COc1cccc(-c2[nH]c(C3CCN(c4ncnc5[nH]c(C)cc45)CC3)nc2C)c1", "note": "[P-3131, 4-[4-[5-(3-methoxyphenyl)-4-methyl-1H-imidazol-2-yl]-1-piperidyl]-6-methyl-7H-pyrrolo[2,3-d]pyrimidine]", "IC50": "0.0001 to 1"}
{"molecule": "Cc1cc2c(N3CCC(C)(c4nc(C)c(-c5ccc6c(c5)OCCO6)[nH]4)CC3)ncnc2[nH]1", "note": "[P-3151, 4-[4-[5-(2,3-dihydro-1,4-benzodioxin-6-yl)-4-methyl-1H-imidazol-2-yl]-4-methyl-1-piperidyl]-6-methyl-7H-pyrrolo[2,3-d]pyrimidine]", "IC50": "0.0001 to 1"}
{"molecule": "Cc1nn(C)cc1-c1cc2c(N3CCC(c4nc(C)c(-c5ccc(OC(F)(F)F)cc5)[nH]4)CC3)ncnc2[nH]1", "note": "[P-3122, 6-(1,3-dimethylpyrazol-4-yl)-4-[4-[4-methyl-5-[4-(trifluoromethoxy)phenyl]-1H-imidazol-2-yl]-1-piperidyl]-7H-pyrrolo[2,3-d]pyrimidine]", "IC50": "0.0001 to 1"}
{"molecule": "COc1cccc(-c2[nH]c(C3(C)CCN(c4ncnc5[nH]c(-c6ccc(C#N)cc6)cc45)CC3)nc2C)c1", "note": "[P-3167, 4-[4-[4-[5-(3-methoxyphenyl)-4-methyl-1H-imidazol-2-yl]-4-methyl-1-piperidyl]-7H-pyrrolo[2,3-d]pyrimidin-6-yl]benzonitrile]", "IC50": "0.0001 to 1"}
{"molecule": "Cc1cc2c(N3CCC(C)(c4nc(C)c(-c5ccc6c(c5)OCO6)[nH]4)CC3)ncnc2[nH]1", "note": "[P-3150, 4-[4-[5-(1,3-benzodioxol-5-yl)-4-methyl-1H-imidazol-2-yl]-4-methyl-1-piperidyl]-6-methyl-7H-pyrrolo[2,3-d]pyrimidine]", "IC50": "0.0001 to 1"}
{"molecule": "COc1ccc(-c2cc3c(N4CCC(C)(c5nc(C)c(-c6ccc7c(c6)OCO7)[nH]5)CC4)ncnc3[nH]2)cn1", "note": "[P-3158, 4-[4-[5-(1,3-benzodioxol-5-yl)-4-methyl-1H-imidazol-2-yl]-4-methyl-1-piperidyl]-6-(6-methoxy-3-pyridyl)-7H-pyrrolo[2,3-d]pyrimidine]", "IC50": "0.0001 to 1"}
{"molecule": "COc1cc(-c2cc3c(N4CCC(c5nc(C(F)(F)F)c(-c6ccc(C)cc6)[nH]5)CC4)ncnc3[nH]2)ccn1", "note": "[P-3134, 6-(2-methoxy-4-pyridyl)-4-[4-[5-(p-tolyl)-4-(trifluoromethyl)-1H-imidazol-2-yl]-1-piperidyl]-7H-pyrrolo[2,3-d]pyrimidine]", "IC50": "0.0001 to 1"}
{"molecule": "Fc1ccc(-c2cc3c(N4CCC(c5nc(C6CC6)c(-c6ccccc6)[nH]5)CC4)ncnc3[nH]2)cc1", "note": "[P-3009, 4-[4-(4-cyclopropyl-5-phenyl-1H-imidazol-2-yl)-1-piperidyl]-6-(4-fluorophenyl)-7H-pyrrolo[2,3-d]pyrimidine]", "IC50": "0.0001 to 1"}
{"molecule": "COc1cc(-c2[nH]c(C3(C)CCN(c4ncnc5[nH]c(C)cc45)CC3)nc2C)ccc1C", "note": "[P-3105, 4-[4-[5-(3-methoxy-4-methyl-phenyl)-4-methyl-1H-imidazol-2-yl]-4-methyl-1-piperidyl]-6-methyl-7H-pyrrolo[2,3-d]pyrimidine]", "IC50": "0.0001 to 1"}
{"molecule": "COc1cc(-c2cc3c(N4CCC(c5nc(C6CC6)c(-c6ccccc6)[nH]5)CC4)ncnc3[nH]2)ccn1", "note": "[P-3008, 4-[4-(4-cyclopropyl-5-phenyl-1H-imidazol-2-yl)-1-piperidyl]-6-(2-methoxy-4-pyridyl)-7H-pyrrolo[2,3-d]pyrimidine]", "IC50": "0.0001 to 1"}
{"molecule": "COc1ccc(-c2[nH]c(C3(C)CCN(c4ncnc5[nH]c(-c6cnn(C(F)F)c6)cc45)CC3)nc2C)cc1C", "note": "[P-3154, 6-[1-(difluoromethyl)pyrazol-4-yl]-4-[4-[5-(4-methoxy-3-methyl-phenyl)-4-methyl-1H-imidazol-2-yl]-4-methyl-1-piperidyl]-7H-pyrrolo[2,3-d]pyrimidine]", "IC50": "0.0001 to 1"}
{"molecule": "CCC1(c2nc(C)c(-c3ccc(OC)cc3)[nH]2)CCN(c2ncnc3[nH]c(C)cc23)CC1", "note": "[P-3140, 4-[4-ethyl-4-[5-(4-methoxyphenyl)-4-methyl-1H-imidazol-2-yl]-1-piperidyl]-6-methyl-7H-pyrrolo[2,3-d]pyrimidine]", "IC50": "0.0001 to 1"}
{"molecule": "CCOc1cc(-c2[nH]c(C3CCN(c4ncnc5[nH]c(C)cc45)CC3)nc2C)ccc1C", "note": "[P-3126, 4-[4-[5-(3-ethoxy-4-methyl-phenyl)-4-methyl-1H-imidazol-2-yl]-1-piperidyl]-6-methyl-7H-pyrrolo[2,3-d]pyrimidine]", "IC50": "0.0001 to 1"}
{"molecule": "CCC1(c2nc(C)c(-c3ccc4c(c3)OCCO4)[nH]2)CCN(c2ncnc3[nH]c(C)cc23)CC1", "note": "[P-3144, 4-[4-[5-(2,3-dihydro-1,4-benzodioxin-6-yl)-4-methyl-1H-imidazol-2-yl]-4-ethyl-1-piperidyl]-6-methyl-7H-pyrrolo[2,3-d]pyrimidine]", "IC50": "0.0001 to 1"}
